Consider 2 compounds from patent publication US20150004261A1, “Rhizoma Arisaematis Extracts and Uses Thereof for Wound-Healing Effects” (THE HONG KONG UNIVERSITY OF SCIENCE AND TECHNOLOGY, priority 2011, published 2015).

In the assay the test system is adult human keratinocytes. Put plainly: In-vitro scratch wound-healing assay. In kind it is cell-based. As to conditions: for closure of in vitro scratch wound gap: day 4, Example 9, FIG. 8B. The procedure: Human neonatal or adult keratinocytes late population doubling time (PD≧15) were trypsinized and seeded onto 6-well tissue culture plates (Falcon) at a density of 3×10^6 cells/well in HKGS (Cascade Biologics) and EpiLife (Cascade Biologics). After an overnight incubation in a 5% CO2 and 37° C. chamber, a bisecting scratch was made with a sterile p1000 micropipette tip and the cells were washed with PBS twice, and then replaced with the basal medium without the supplement for the duration of the assay.
Total extract, fractions and compounds of Rhizoma arisaematis were diluted in the basal medium without the supplement and added to the wells. EGF (Sigma) at 50 ng/mL was used as positive control, and DMSO (0.1%) was used as a vehicle control.
For each scratch, two consecutive fields were selected using the following criteria: relatively little cell debris within the scratch; even scratch, with straight edges; both edges visible under a single field using the 10× objective; fields not too close to either end of the scratch. The pictures were taken from day 1 for five consecutive days. The medium and the extracts were replenished daily for the duration of the assay.
To examine the efficacy of the herb Rhizoma arisaematis (RA) in in vitro closure of scratch wounds, human keratinocytes were incubated with the crude extract (RA-T) or different fractions of RA (100 μg/mL).
To examine the efficacy of the WA sub-fractions of RA in closing in vitro scratch wounds, RA-WA1 and RA-WA2 (1 μg/mL and 10 μg/mL) were tested using human keratinocytes. The scratch assay was performed using the procedures as described in Example 1. RA-WA1 and RA-WA2 at 1 μg/mL and 10 μg/mL were evaluated for their ability to close in vitro wound gap.
To examine the wound-healing effects, 3-O-(9,12-octadecadienoyl)-glyceryl-β-D-galactopyranoside (G192-C07) isolated from the BU fraction of RA (FIG. 8A) was incubated with human keratinocytes. The scratch assay was performed as described in Examples 1 and 5. G192-C07 at 1, 3, 10, and 30 μg/mL were evaluated for their ability to close in vitro wound gap. Epidermal growth factor (EGF, 10 ng/mL) and 0.1% DMSO were used as a positive and a vehicle control, respectively. Photographs of the wounds were taken immediately after the scratch and on day 4.

Take `CCCCC/C=C\C/C=C\CCCCCCCC(=O)OCC(O)CO[C@@H]1O[C@H](CO)[C@H](O)[C@H](O)[C@H]1O` (stereo partly drawn) [Compound G192-C07, 3-O-(9Z,12Z-octadecadienoyl)-glyceryl-β-D-galactopyranoside]: the “closure of in vitro scratch wound gap” value is recorded as “partly closed the wound gap” (1 μM), “partly closed the wound gap” (3 μM), “partly closed the wound gap” (10 μM) and “fully closed the wounds by day 4” (30 μM).

In the case of “EGF: Epidermal growth factor (Sigma), positive control (NSDSECPLSHDGYCLHDGVCMYIEALDKYACNCVVGYIGERCQYRDLKWWELR; Epidermal growth factor; UniProt P01133 971-1023, looked up) [reference compound]”, the “closure of in vitro scratch wound gap” value (positive control, 10 ng/mL) was “fully closed the wounds by day 4”. The “closure of in vitro scratch wounds” value (positive control, 50 ng/mL, Example 1, FIG. 1) was “closed the wounds by day 2”.
